In the CheMixHub viscosity set:
Values joined by “and” are separate entries in the source; they are usually repeats but may differ in a detail not shown here. Identical values can stand only once. ± gives the uncertainty stated by the source.

Test: xn = mol fraction of the nth substance listed

Clc1ccccc1 + OCCOCCOCCO
viscosity [mPa·s], 101 kPa
Settings | 298.15 K | 308.15 K
x2 = 0.0473 | 0.941 ± 0.05 | 0.808 ± 0.045
x2 = 0.149 | 1.491 ± 0.072 | 1.172 ± 0.058
x2 = 0.2493 | 2.307 ± 0.11 | 1.682 ± 0.08
x2 = 0.3495 | 3.504 ± 0.16 | 2.4 ± 0.11
x2 = 0.439 | 5.014 ± 0.22 | 3.283 ± 0.15
x2 = 0.4734 | 5.733 ± 0.24 | 3.699 ± 0.17
x2 = 0.5509 | 7.695 ± 0.3 | 4.829 ± 0.21
x2 = 0.6512 | 11.09 ± 0.41 | 6.787 ± 0.28
x2 = 0.7493 | 15.58 ± 0.55 | 9.422 ± 0.36
x2 = 0.8483 | 21.58 ± 0.73 | 13.05 ± 0.47
x2 = 0.9428 | 28.99 ± 0.96 | 17.74 ± 0.61

CCc1ccccc1 + c1ccccc1
Settings | viscosity
293.15 K, 101.33 kPa, x2 = 0.2323 | 0.657 ± 0.0058 mPa·s
293.15 K, 101.33 kPa, x2 = 0.4707 | 0.646 ± 0.0057 mPa·s
293.15 K, 101.33 kPa, x2 = 0.5427 | 0.644 ± 0.0057 mPa·s
293.15 K, 101.33 kPa, x2 = 0.7124 | 0.635 ± 0.0057 mPa·s
293.15 K, 101.33 kPa, x2 = 0.8608 | 0.64 ± 0.0057 mPa·s
298.15 K, 101.3 kPa, x2 = 0.0268 | 0.632 ± 0.0054 mPa·s
298.15 K, 101.3 kPa, x2 = 0.1358 | 0.6249 ± 0.0053 mPa·s
298.15 K, 101.3 kPa, x2 = 0.2562 | 0.6202 ± 0.0053 mPa·s
298.15 K, 101.3 kPa, x2 = 0.3579 | 0.6177 ± 0.0053 mPa·s
298.15 K, 101.3 kPa, x2 = 0.4426 | 0.6157 ± 0.0053 mPa·s
298.15 K, 101.3 kPa, x2 = 0.5472 | 0.6134 ± 0.0052 mPa·s
298.15 K, 101.3 kPa, x2 = 0.6302 | 0.6115 ± 0.0052 mPa·s
298.15 K, 101.3 kPa, x2 = 0.7423 | 0.608 ± 0.0052 mPa·s
298.15 K, 101.3 kPa, x2 = 0.8318 | 0.6056 ± 0.0052 mPa·s
298.15 K, 101.3 kPa, x2 = 0.9404 | 0.6027 ± 0.0052 mPa·s
298.15 K, 101.33 kPa, x1 = 0.1 | 0.599 ± 0.016 mPa·s
298.15 K, 101.33 kPa, x1 = 0.2 | 0.601 ± 0.006 mPa·s and 0.601 ± 0.016 mPa·s
298.15 K, 101.33 kPa, x1 = 0.4 | 0.603 ± 0.016 mPa·s
298.15 K, 101.33 kPa, x1 = 0.5 | 0.607 ± 0.0061 mPa·s and 0.607 ± 0.016 mPa·s
298.15 K, 101.33 kPa, x1 = 0.6 | 0.608 ± 0.016 mPa·s
298.15 K, 101.33 kPa, x1 = 0.8 | 0.616 ± 0.017 mPa·s
298.15 K, 101.33 kPa, x2 = 0.145 | 0.6185 ± 0.0062 mPa·s
298.15 K, 101.33 kPa, x2 = 0.2147 | 0.6165 ± 0.0062 mPa·s
298.15 K, 101.33 kPa, x2 = 0.2942 | 0.6156 ± 0.0062 mPa·s
298.15 K, 101.33 kPa, x2 = 0.4187 | 0.6078 ± 0.0061 mPa·s
298.15 K, 101.33 kPa, x2 = 0.4944 | 0.6057 ± 0.0061 mPa·s
298.15 K, 101.33 kPa, x2 = 0.5926 | 0.6038 ± 0.006 mPa·s
298.15 K, 101.33 kPa, x2 = 0.6887 | 0.6029 ± 0.006 mPa·s
298.15 K, 101.33 kPa, x2 = 0.7786 | 0.6012 ± 0.006 mPa·s
298.15 K, 101.33 kPa, x2 = 0.8938 | 0.6006 ± 0.006 mPa·s
298.15 K, 101.33 kPa, x2 = 0.9568 | 0.6008 ± 0.006 mPa·s
303.15 K, 101.3 kPa, x2 = 0.1358 | 0.5881 ± 0.0051 mPa·s
303.15 K, 101.3 kPa, x2 = 0.2562 | 0.5827 ± 0.005 mPa·s
303.15 K, 101.3 kPa, x2 = 0.3579 | 0.5777 ± 0.005 mPa·s
303.15 K, 101.3 kPa, x2 = 0.4426 | 0.5744 ± 0.005 mPa·s
303.15 K, 101.3 kPa, x2 = 0.5472 | 0.571 ± 0.005 mPa·s
303.15 K, 101.3 kPa, x2 = 0.6302 | 0.5678 ± 0.005 mPa·s
303.15 K, 101.3 kPa, x2 = 0.7423 | 0.5637 ± 0.0049 mPa·s
303.15 K, 101.3 kPa, x2 = 0.8318 | 0.5608 ± 0.0049 mPa·s
303.15 K, 101.3 kPa, x2 = 0.9404 | 0.5574 ± 0.0049 mPa·s
303.15 K, 101.33 kPa, x2 = 0.2323 | 0.583 ± 0.0053 mPa·s
303.15 K, 101.33 kPa, x2 = 0.4707 | 0.57 ± 0.0052 mPa·s
303.15 K, 101.33 kPa, x2 = 0.5427 | 0.568 ± 0.0052 mPa·s
303.15 K, 101.33 kPa, x2 = 0.7124 | 0.56 ± 0.0051 mPa·s
303.15 K, 101.33 kPa, x2 = 0.8608 | 0.561 ± 0.0051 mPa·s
308.15 K, 101.33 kPa, x1 = 0.1 | 0.528 ± 0.014 mPa·s
308.15 K, 101.33 kPa, x1 = 0.2 | 0.53 ± 0.014 mPa·s
308.15 K, 101.33 kPa, x1 = 0.4 | 0.535 ± 0.014 mPa·s
308.15 K, 101.33 kPa, x1 = 0.6 | 0.542 ± 0.015 mPa·s
308.15 K, 101.33 kPa, x1 = 0.8 | 0.551 ± 0.015 mPa·s
313.15 K, 101.33 kPa, x2 = 0.2323 | 0.521 ± 0.0048 mPa·s
313.15 K, 101.33 kPa, x2 = 0.5427 | 0.506 ± 0.0047 mPa·s
313.15 K, 101.33 kPa, x2 = 0.7124 | 0.498 ± 0.0046 mPa·s
313.15 K, 101.33 kPa, x2 = 0.8608 | 0.493 ± 0.0046 mPa·s
318.15 K, 101.33 kPa, x1 = 0.1 | 0.468 ± 0.013 mPa·s
318.15 K, 101.33 kPa, x1 = 0.2 | 0.471 ± 0.013 mPa·s
318.15 K, 101.33 kPa, x1 = 0.4 | 0.477 ± 0.013 mPa·s
318.15 K, 101.33 kPa, x1 = 0.5 | 0.481 ± 0.013 mPa·s
318.15 K, 101.33 kPa, x1 = 0.6 | 0.484 ± 0.013 mPa·s
318.15 K, 101.33 kPa, x1 = 0.8 | 0.492 ± 0.013 mPa·s
318.15 K, 101.33 kPa, x2 = 0.145 | 0.4939 ± 0.0049 mPa·s
318.15 K, 101.33 kPa, x2 = 0.2147 | 0.4912 ± 0.0049 mPa·s
318.15 K, 101.33 kPa, x2 = 0.2942 | 0.4912 ± 0.0049 mPa·s
318.15 K, 101.33 kPa, x2 = 0.4187 | 0.4812 ± 0.0048 mPa·s
318.15 K, 101.33 kPa, x2 = 0.4944 | 0.4774 ± 0.0048 mPa·s
318.15 K, 101.33 kPa, x2 = 0.5926 | 0.4737 ± 0.0047 mPa·s
318.15 K, 101.33 kPa, x2 = 0.6887 | 0.469 ± 0.0047 mPa·s
318.15 K, 101.33 kPa, x2 = 0.7786 | 0.4657 ± 0.0047 mPa·s
318.15 K, 101.33 kPa, x2 = 0.8938 | 0.4621 ± 0.0046 mPa·s
318.15 K, 101.33 kPa, x2 = 0.9568 | 0.4607 ± 0.0046 mPa·s
323.15 K, 101.33 kPa, x1 = 0.1 | 0.44 ± 0.012 mPa·s
323.15 K, 101.33 kPa, x1 = 0.2 | 0.443 ± 0.0044 mPa·s and 0.443 ± 0.012 mPa·s
323.15 K, 101.33 kPa, x1 = 0.4 | 0.449 ± 0.012 mPa·s
323.15 K, 101.33 kPa, x1 = 0.5 | 0.453 ± 0.0045 mPa·s and 0.453 ± 0.012 mPa·s
323.15 K, 101.33 kPa, x1 = 0.6 | 0.456 ± 0.012 mPa·s
323.15 K, 101.33 kPa, x1 = 0.8 | 0.466 ± 0.013 mPa·s
323.15 K, 101.33 kPa, x2 = 0.2323 | 0.469 ± 0.0044 mPa·s
323.15 K, 101.33 kPa, x2 = 0.4707 | 0.456 ± 0.0043 mPa·s
323.15 K, 101.33 kPa, x2 = 0.5427 | 0.453 ± 0.0043 mPa·s
323.15 K, 101.33 kPa, x2 = 0.7124 | 0.443 ± 0.0042 mPa·s
323.15 K, 101.33 kPa, x2 = 0.8608 | 0.44 ± 0.0042 mPa·s
